The source of these data is ChEMBL document CHEMBL2177009, “The use of novel C-methylated spermidine derivatives to investigate the regulation of polyamine metabolism” (J Med Chem, 2011).

The target of assay [1] is Spermine oxidase (Homo sapiens) (UniProt Q9NWM0). Put plainly: Activity of spermine oxidase in human DU145 cells assessed per ug DNA at 100 uM after 48 hrs in presence of serum amine oxidase inhibitor aminoguanidine (RVb = 680 +/- 29 pmol/h per ug DNA). The assay is classed as cell-based. The following applies: DU-145.
Sequence of Spermine oxidase (Homo sapiens) (Q9NWM0 whole entry): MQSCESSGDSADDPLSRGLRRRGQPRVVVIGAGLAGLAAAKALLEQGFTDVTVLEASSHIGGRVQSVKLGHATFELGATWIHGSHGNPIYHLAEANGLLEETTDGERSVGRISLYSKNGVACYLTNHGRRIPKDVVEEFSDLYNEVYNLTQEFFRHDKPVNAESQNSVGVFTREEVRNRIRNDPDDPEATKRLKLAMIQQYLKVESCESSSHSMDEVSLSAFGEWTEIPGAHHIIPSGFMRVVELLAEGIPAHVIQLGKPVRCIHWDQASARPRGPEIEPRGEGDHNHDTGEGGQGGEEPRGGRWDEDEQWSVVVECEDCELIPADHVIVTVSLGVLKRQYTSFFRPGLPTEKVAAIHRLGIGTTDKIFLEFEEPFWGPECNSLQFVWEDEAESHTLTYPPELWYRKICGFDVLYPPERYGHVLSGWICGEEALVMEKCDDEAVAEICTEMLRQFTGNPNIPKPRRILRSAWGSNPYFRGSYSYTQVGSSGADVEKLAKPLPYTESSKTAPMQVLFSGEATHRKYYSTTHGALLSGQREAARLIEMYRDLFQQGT
For assay [2], the target named is T1, S-adenosylmethionine decarboxylase proenzyme (Homo sapiens) (UniProt P17707).
T1 sequence (whole entry): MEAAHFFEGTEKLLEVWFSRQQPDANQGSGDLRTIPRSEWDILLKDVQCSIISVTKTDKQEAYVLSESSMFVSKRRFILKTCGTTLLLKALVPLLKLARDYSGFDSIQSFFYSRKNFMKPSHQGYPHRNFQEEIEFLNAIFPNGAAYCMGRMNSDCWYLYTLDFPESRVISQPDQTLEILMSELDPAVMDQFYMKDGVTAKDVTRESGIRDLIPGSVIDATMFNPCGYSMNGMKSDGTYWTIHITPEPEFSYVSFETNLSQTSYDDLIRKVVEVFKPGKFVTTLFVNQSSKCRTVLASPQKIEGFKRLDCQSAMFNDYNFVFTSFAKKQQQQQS
Put plainly: Activity of S-adenosyl-L-methionine decarboxylase in human DU145 cells assessed per ug DNA at 100 uM after 24 hrs in presence of serum amine oxidase inhibitor aminoguanidine (RVb = 61 +/- 5 pmol/h per ug DNA). The class given is cell-based. The following applies: DU-145.

Assay [3] has as its target T2, Ornithine decarboxylase (Homo sapiens) (UniProt P11926).
T2 sequence (whole entry): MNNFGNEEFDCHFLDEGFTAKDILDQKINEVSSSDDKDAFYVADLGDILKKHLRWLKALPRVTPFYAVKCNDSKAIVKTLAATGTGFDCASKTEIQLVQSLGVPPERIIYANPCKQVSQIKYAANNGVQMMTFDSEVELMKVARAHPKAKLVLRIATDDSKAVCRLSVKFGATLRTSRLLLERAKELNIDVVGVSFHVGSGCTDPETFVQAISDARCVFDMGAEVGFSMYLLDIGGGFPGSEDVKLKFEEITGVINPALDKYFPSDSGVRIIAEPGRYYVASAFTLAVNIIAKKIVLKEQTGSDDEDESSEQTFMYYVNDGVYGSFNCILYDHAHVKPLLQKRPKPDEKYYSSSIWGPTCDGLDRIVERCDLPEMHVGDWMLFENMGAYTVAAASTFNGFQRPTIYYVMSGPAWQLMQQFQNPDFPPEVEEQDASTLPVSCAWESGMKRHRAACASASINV
The assay is described as follows: Activity of ornithine decarboxylase in human DU145 cells assessed per ug DNA at 100 uM after 72 hrs in presence of serum amine oxidase inhibitor aminoguanidine (RVb = 7.5+/- 0.9 pmol/h per ug DNA). The conditions noted are these: DU-145. The assay is classed as cell-based.

Assay [4] has as its target Spermine oxidase (Homo sapiens) (UniProt Q9NWM0). The assay is described as follows: Activity of spermine oxidase in human DU145 cells assessed per ug DNA at 100 uM after 24 hrs in presence of serum amine oxidase inhibitor aminoguanidine (RVb = 493 +/- 22 pmol/h per ug DNA). The following applies: DU-145. The assay is classed as cell-based.
Assay [5] addresses T1, S-adenosylmethionine decarboxylase proenzyme (Homo sapiens). The assay is described as follows: Activity of S-adenosyl-L-methionine decarboxylase in human DU145 cells assessed per ug DNA at 100 uM after 72 hrs in presence of serum amine oxidase inhibitor aminoguanidine (RVb = 72 +/- 6 pmol/h per ug DNA). The class given is cell-based. The conditions noted are these: DU-145.

Assay [6] concerns the target Peroxisomal N(1)-acetyl-spermine/spermidine oxidase (Homo sapiens) (UniProt Q6QHF9). The assay is described as follows: Activity of APAO in human DU145 cells assessed per ug DNA at 100 uM after 24 hrs in presence of serum amine oxidase inhibitor aminoguanidine (RVb = 540 +/- 61 pmol/h per ug DNA). The conditions noted are these: DU-145. The assay is classed as cell-based.

The target of assay [7] is Diamine acetyltransferase 1 (Homo sapiens) (UniProt P21673). Put plainly: Activity of SSAT in human DU145 cells assessed per ug DNA at 100 uM after 72 hrs in presence of serum amine oxidase inhibitor aminoguanidine (RVb = 62 +/- 4 pmol/h per ug DNA). The assay is classed as cell-based. The following applies: DU-145.
Sequence of Diamine acetyltransferase 1 (Homo sapiens) (P21673 whole entry): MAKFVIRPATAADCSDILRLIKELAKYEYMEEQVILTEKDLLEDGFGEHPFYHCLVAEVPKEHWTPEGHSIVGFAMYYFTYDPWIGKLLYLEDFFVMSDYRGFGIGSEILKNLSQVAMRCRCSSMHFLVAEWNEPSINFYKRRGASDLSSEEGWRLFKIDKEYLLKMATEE
Assay [8] deals with T1, S-adenosylmethionine decarboxylase proenzyme (Homo sapiens). Put plainly: Activity of S-adenosyl-L-methionine decarboxylase in human DU145 cells assessed per ug DNA at 100 uM after 48 hrs in presence of serum amine oxidase inhibitor aminoguanidine (RVb = 73 +/- 1 pmol/h per ug DNA). The assay is classed as cell-based. The conditions noted are these: DU-145.
The test system of the next assay is DU-145. Put plainly: Displacement of [14C]-spermidine from polyamine transporter in human DU145 cells at 1 to 100 uM after 10 mins. The class given is cell-based. A general note: Loss of bound radioactivity is the signal in a displacement assay; it reports binding, not function.
A further assay relates to Nucleic Acid. Put plainly: Induction of SSAT alternative splicing in mouse primary fetal fibroblasts assessed as SSAT-X mRNA at 100 uM by qRT-PCR in presence of CHX relative to total SSAT mRNA.
Assay [9] has as its target T2, Ornithine decarboxylase (Homo sapiens). The assay is described as follows: Activity of ornithine decarboxylase in human DU145 cells assessed per ug DNA at 100 uM after 24 hrs in presence of serum amine oxidase inhibitor aminoguanidine (RVb = 29.3 +/- 1.4 pmol/h per ug DNA). The assay is classed as cell-based. The conditions noted are these: DU-145.
Assay [10] deals with Diamine acetyltransferase 1 (Homo sapiens) (UniProt P21673). The assay is described as follows: Activity of SSAT in human DU145 cells assessed per ug DNA at 100 uM after 24 hrs in presence of serum amine oxidase inhibitor aminoguanidine (RVb = 59 +/- 1 pmol/h per ug DNA). The assay is classed as cell-based. The following applies: DU-145.
Assay [11] addresses T2, Ornithine decarboxylase (Homo sapiens). The assay is described as follows: Activity of ornithine decarboxylase in human DU145 cells assessed per ug DNA at 100 uM after 48 hrs in presence of serum amine oxidase inhibitor aminoguanidine (RVb = 17.7+/- 2.6 pmol/h per ug DNA). The assay is classed as cell-based. The conditions noted are these: DU-145.
Assay [12] addresses Spermine oxidase (Homo sapiens) (UniProt Q9NWM0). Put plainly: Activity of spermine oxidase in human DU145 cells assessed per ug DNA at 100 uM after 72 hrs in presence of serum amine oxidase inhibitor aminoguanidine (RVb = 742 +/- 10 pmol/h per ug DNA). The conditions noted are these: DU-145. The class given is cell-based.
The target in assay [13] is Diamine acetyltransferase 1 (Homo sapiens) (UniProt P21673). Put plainly: Activity of SSAT in human DU145 cells assessed per ug DNA at 100 uM after 48 hrs in presence of serum amine oxidase inhibitor aminoguanidine (RVb = 58 pmol/h per ug DNA). The class given is cell-based. The following applies: DU-145.
For assay [14], the target named is Peroxisomal N(1)-acetyl-spermine/spermidine oxidase (Homo sapiens) (UniProt Q6QHF9). Put plainly: Activity of APAO in human DU145 cells assessed per ug DNA at 100 uM after 72 hrs in presence of serum amine oxidase inhibitor aminoguanidine (RVb = 662 +/- 48 pmol/h per ug DNA). The class given is cell-based. The conditions noted are these: DU-145.
Sequence of Peroxisomal N(1)-acetyl-spermine/spermidine oxidase (Homo sapiens) (Q6QHF9 whole entry): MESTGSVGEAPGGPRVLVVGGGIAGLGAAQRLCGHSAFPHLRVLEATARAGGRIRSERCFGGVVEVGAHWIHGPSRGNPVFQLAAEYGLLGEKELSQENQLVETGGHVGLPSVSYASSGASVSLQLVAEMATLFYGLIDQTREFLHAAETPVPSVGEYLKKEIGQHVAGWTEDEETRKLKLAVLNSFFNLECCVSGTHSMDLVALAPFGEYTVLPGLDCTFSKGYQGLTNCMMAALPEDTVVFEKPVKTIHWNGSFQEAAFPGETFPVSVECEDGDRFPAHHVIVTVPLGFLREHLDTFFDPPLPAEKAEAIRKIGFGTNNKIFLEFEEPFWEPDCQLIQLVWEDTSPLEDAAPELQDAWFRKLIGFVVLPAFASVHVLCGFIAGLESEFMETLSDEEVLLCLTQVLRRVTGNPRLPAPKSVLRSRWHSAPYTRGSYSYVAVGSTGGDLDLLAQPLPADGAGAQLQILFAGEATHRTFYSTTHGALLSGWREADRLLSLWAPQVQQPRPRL
For assay [15] the target is unchanged. The assay is described as follows: Activity of APAO in human DU145 cells assessed per ug DNA at 100 uM after 48 hrs in presence of serum amine oxidase inhibitor aminoguanidine (RVb = 699 +/- 21 pmol/h per ug DNA). The assay is classed as cell-based. The following applies: DU-145.

Calls of active or inactive are those of the source. The calls are words filed in the database; no cut-off is given here.

On to `CC(N)CCCNCCCN` (stereo not given), for which the Activity came to 738 pmol/h in [1]; 53 pmol/h in assay [2]; 3.8 pmol/h in assay [3]; 515 pmol/h in assay [4]; 63 pmol/h in assay [5]; 562 pmol/h in assay [6]. Further, the Activity was found to be 61 pmol/h in assay [7]; 67 pmol/h in [8]; 4.7 pmol/h in [9]; 65 pmol/h in assay [10]; 5.5 pmol/h in assay [11]; 832 pmol/h in assay [12]. The Activity in assay [13] amounted to 62 pmol/h; in assay [14], 737 pmol/h; in [15], 770 pmol/h. Also, the result with DU-145 and with Nucleic Acid was Active.

Consider `C[C@H](N)CCNCCCCN`, for which the Activity in assay [1] came to 695 pmol/h; in [2], 64 pmol/h; in assay [3], 3.5 pmol/h; in [4] it was 362 pmol/h; in assay [5], 75 pmol/h; in [6], 545 pmol/h. Moreover, the Activity in [7] was 66 pmol/h; in [8], 72 pmol/h; in assay [9] it was 4.3 pmol/h; in assay [10], 67 pmol/h; in [11] it was 4.4 pmol/h; in assay [12] it was 754 pmol/h. The Activity in [13] stood at 61 pmol/h; in [14], 745 pmol/h; in assay [15], 779 pmol/h. Besides, the outcome in the assay with DU-145 and with Nucleic Acid was Active.

As to `CC(CN)CNCCCCN` (stereo not given), the Activity in assay [1] is 655 pmol/h; in [2] it was 67 pmol/h; in assay [3] it was 9.1 pmol/h; in assay [4], 394 pmol/h; in assay [5] it was 79 pmol/h; in assay [6] it was 562 pmol/h. In addition, the Activity amounted to 61 pmol/h in [7]; 71 pmol/h in [8]; 21.7 pmol/h in [9]; 56 pmol/h in assay [10]; 16.6 pmol/h in [11]; 608 pmol/h in [12]. In addition, the Activity stood at 59 pmol/h in [13], 732 pmol/h in assay [14] and 719 pmol/h in [15]. Besides, the outcome in the assay on DU-145 and with Nucleic Acid was Active.

On to `CC(CCN)NCCCCN` (stereo not given), for which the Activity in assay [1] amounted to 474 pmol/h; in assay [2], 53 pmol/h; in assay [3], 5.4 pmol/h; in [4] it was 204 pmol/h; in assay [5], 58 pmol/h; in [6] it was 528 pmol/h. The Activity in assay [7] came to 69 pmol/h; in assay [8], 60 pmol/h; in [9], 8.8 pmol/h; in [10], 62 pmol/h; in [11] it was 9.3 pmol/h; in assay [12], 571 pmol/h. For the same compound, the values for the Activity in assay [13], in [14] and in assay [15] were 59 pmol/h, 775 pmol/h and 693 pmol/h, respectively. Further, the outcome in the assay on DU-145 and in the assay with Nucleic Acid was Active.

As to `NCCCCNCCCN`, in the assay on DU-145, the outcome was Active.

Take `CCNCCCNCCCNCCCNCC`: in the assay on Nucleic Acid, the outcome was Active.
